Test results from US20070135488A1, “Amlodipine nicotinate and process for the preparation thereof” (priority 2002, published 2007).
Read-outs that look alike come from different tables or passages of the source.

Tests used:
[1] = Hygroscopicity test; type: physicochemical; settings: 60% relative humidity, 50° C., 14 days
Procedure: 1.0 g of amlodipine besylate prepared in accordance with U.S. Pat. No. 4,879,303 and 1.0 g of amlodipine nicotinate dihydrate obtained in Example 1 were exposed to 60% relative humidity at 50° C. for 14 days.

[2] = Chemical stability (stability test under stress condition); type: physicochemical; settings: tablets in sealed vials, 50° C., 60% relative humidity, three weeks, TLC
Procedure: In order to assess the chemical stability, amlodipine besylate and amlodipine nicotinate were blended in a powder vehicle and formed into tablets. The vehicle for tablets comprised microcrystalline cellulose and anhydrous dibasic calcium phosphate in 50:50. The tablets were then stored in sealed vials at 50° C. and at 60% relative humidity for three weeks.
FIGS. 4A and 4B show H-NMR charts of amlodipine besylate before and after the stability test, respectively, and FIGS. 5A and 5B show H-NMR charts of amlodipine nicotinate before and after the stability test, respectively. The peaks on NMR of amlodipine besylate are as follows: […]

[3] = tested on: spontaneously hypertensive rats (SHRs); experiment: In vivo anti-hypertensive activity, systolic blood pressure by tail-cuff method; design: species or system rat; settings: SHR; for ED20 (amount necessary for 20% decrease in the blood pressure) / Intensity (reverse ratio of ED20 values relative to amlodipine besylate) / Maximal anti-hypertensive effect (change of systolic blood pressure) / Intensity (maximal effect of amlodipine nicotinate to maximal effect of amlodipine besylate): oral; for Maximal anti-hypertensive effect (change of systolic blood pressure): mean % ± S.E.M.
Procedure: Cardiovascular effects, i.e., in vivo anti-hypertensive activities, were measured for amlodipine besylate prepared in accordance with U.S. Pat. No. 4,879,303 and amlodipine nicotinate prepared in Example 1, using spontaneously hypertensive rats (SHRs), by Korea Research Institute of Chemical Technology (Screening Center, #100, Jang-dong, Yuseong-gu, Daejeon).
Male SHRs (Charles Rever Co., Japan) aged 13-14 weeks were used. Before evaluation, the SHRs were accustomed in a clean breeding chamber under conditions of a temperature of 22.5±1° C., a relative humidity of 55±5% and a lighting time of 12 hour intervals.
The SHRs having a systolic blood pressure over 170 mmHg were divided into 7 groups, i.e., Test Groups 1 to 3 (for amlodipine besylate), Test Groups 4 to 6 (for amlodipine nicotinate) and a Control Group. Each Test Group and Control Group consisted of 6-8 SHRs (n=6-8).
The test compounds were dissolved in distilled water to prepare test solutions immediately prior to administration. The test solutions of amlodipine besylate and amlodipine nicotinate were prepared by dissolving 1, 3, and 10 mg/kg in distilled water (0.5 ml/100 g rat), respectively, and then administered orally to each Test Group. The vehicle (distilled water) was administered to Control Group.
The systolic blood pressure was measured with Multichannel 8000 (TSE Co., Germany), using a tail-cuff method. That is, the systolic blood pressures of a tail artery of each rat were measured before the administration of the test solutions and after 2, 4, 6, 8, 10, and 24 hours from the administration thereof. In order to facilitate the measurement of blood pressures, the test animals of each Group underwent warming at 37° C. for about 10 minutes before the measurements.
The results of the foregoing test were expressed by a mean percentage and standard error (mean %±S.E.M.). Statistical analysis of the test results were conducted by an unpaired t-test and ANOVA (one-way analysis of variance) with Sigma Stat program (Jandel Co., USA). The secondary evaluations were conducted by a Dunnett's multiple comparison test.

[4] = Processability test (stickiness to tablet punch); type: physicochemical; settings: amount adhering to tablet punch; for Stickiness: Amlodipine(μg)/cm^2 (tablet): average from slope over runs of 50-300 tablets
Procedure: Using a conventional tablet making machinery, fifty tablets containing calcium sulphate dihydrate, microcrystalline cellulose and amlodipine nicotinate dihydrate (47.5:47.5:5) were produced. The material adhering to the tablet punch was then extracted using methanol and the amount was measured spectrometrically. This procedure was then repeated for runs of 100, 150, […], 250 and 300 tablets. After each run the amount of material adhering to the tablet punch was measured in the same process as above. The values were plotted and an average value was calculated from the slope of the line produced. The same procedure was then repeated for amlodipine besylate. The amount of amlodipine measured as adhering to the tablet punch is shown in Table 2 for amlodipine nicotinate dihydrate with relative to amlodipine besylate.

[5] = Photostability; type: physicochemical; settings: 25-30° C., 2 weeks, incandescent lamp (220V, 100 W) 30 cm above
Procedure: 1.0 g of amlodipine besylate prepared in accordance with U.S. Pat. No. 4,879,303 and 1.0 g of amlodipine nicotinate dihydrate obtained in Example 1, which were placed in glass schales (100×20 mm), were exposed at 25-30° C. for 2 weeks under an incandescent lamp (220V, 100 W) that was placed at 30 cm above the samples. […] FIGS. 6A and 6B show H-NMR charts of amlodipine besylate before and after the photostability test, respectively. The peaks on NMR of amlodipine besylate are as follows: […]

[6] = Solubility measurement (water solubility and pH at saturation); type: physicochemical; settings: distilled water, room temperature; for solubility: ultrasonic waves, maximal solubilized amount
Procedure: Water solubilities were measured for amlodipine besylate prepared in accordance with U.S. Pat. No. 4,879,303 and amlodipine nicotinate obtained in Example 1. By using 50 ml of distilled water and ultrasonic waves, maximal solubilized amounts were measured at a room temperature and pHs at saturation were measured using Fischer Scientific Accument (PH meter 15).

[7] = 1 mg/kg, listed as Nicotinate salt, dihydrate
[8] = listed as amlodipine nicotinate, dihydrate

## CCOC(=O)C1=C(COCCN)NC(C)=C(C(=O)OC)C1c1ccccc1Cl (centres unmarked) [Amlodipine besylate, amlodipine besylate, reference compound]
[1]
  hygroscopicity (state after exposure): remained anhydrous
[2]
  breakdown products after stability test: breakdown products
[3]
  ED20 (amount necessary for 20% decrease in the blood pressure): 2.48 ± 0.46 mg/kg
  Intensity (reverse ratio of ED20 values relative to amlodipine besylate): 1.00
[3]; 1 mg/kg, listed as Besylate salt
  Maximal anti-hypertensive effect (change of systolic blood pressure): −7.0 ± 1.66%
[3]; 3 mg/kg, listed as Besylate salt
  Maximal anti-hypertensive effect (change of systolic blood pressure): −25.0 ± 1.98%
[3]; 10 mg/kg, listed as Besylate salt
  Maximal anti-hypertensive effect (change of systolic blood pressure): −38.7 ± 2.18%
[3]; oral, 1, 3 and 10 mg/kg
  effect on blood pressure: dose-dependently reduced blood pressures
[3]; listed as amlodipine besylate
  ED20 (amount necessary for 20% decrease in the blood pressure): 2.48 ± 0.46 mg/kg
[4]
  Stickiness relative to besylate: 100.0%
  Stickiness: Amlodipine(μg)/cm^2 (tablet): 1.20 μg/cm^2 (tablet)
[5]
  color change after photostability test: discolored to yellow
[6]
  pH at saturation: 6.6
[6]; water, thermodynamic from solid, read-out: Solubility
  solubility: 4600 µg/mL

## CCOC(=O)C1=C(COCCN)NC(C)=C(C(=O)OC)C1c1ccccc1Cl (centres unmarked) [Amlodipine nicotinate, amlodipine nicotinate dihydrate]
[1]; dihydrate
  hygroscopicity (state after exposure): remained intact
[2]; dihydrate
  breakdown products after stability test: no breakdown product
[3]; [7]
  Maximal anti-hypertensive effect (change of systolic blood pressure): −10.20 ± 2.71%
  Intensity (maximal effect of amlodipine nicotinate to maximal effect of amlodipine besylate): 1.46
[3]; 1 mg/kg, dihydrate
  Intensity (maximal effect of amlodipine nicotinate to maximal effect of amlodipine besylate): about 1.46
[3]; 3 mg/kg
  Intensity (maximal effect of amlodipine nicotinate to maximal effect of amlodipine besylate): 1.07
[3]; 3 mg/kg, listed as Nicotinate salt, dihydrate
  Maximal anti-hypertensive effect (change of systolic blood pressure): −26.8 ± 3.22%
[3]; 10 mg/kg
  Intensity (maximal effect of amlodipine nicotinate to maximal effect of amlodipine besylate): 1.06
[3]; 10 mg/kg, listed as Nicotinate salt, dihydrate
  Maximal anti-hypertensive effect (change of systolic blood pressure): −40.9 ± 2.08%
[3]; dihydrate
  ED20 (amount necessary for 20% decrease in the blood pressure): 2.19 ± 0.57 mg/kg
  Intensity (reverse ratio of ED20 values relative to amlodipine besylate): 1.13
[3]; [8]
  ED20 (amount necessary for 20% decrease in the blood pressure): 2.19 ± 0.57 mg/kg
  Intensity (reverse ratio of ED20 values relative to amlodipine besylate): about 1.13
[4]; dihydrate
  Stickiness: Amlodipine(μg)/cm^2 (tablet): 0.44 μg/cm^2 (tablet)
  Stickiness relative to besylate: 36.7%
[5]; dihydrate
  color change after photostability test: no color change
[6]; dihydrate
  pH at saturation: 7.2
  solubility: 6800 µg/mL
